From the supplement of paper PMC10307832

What was measured:
Experiment in all cases: relative viability (nuclei count vs DMSO), 5 days (fraction); higher = more cells survive
Adavosertib + Olaparib = compound: C=CCn1c(=O)c2cnc(Nc3ccc(N4CCN(C)CC4)cc3)nc2n1-c1cccc(C(C)(C)O)n1 [Adavosertib] + O=C(c1cc(Cc2n[nH]c(=O)c3ccccc23)ccc1F)N1CCN(C(=O)C2CC2)CC1 [Olaparib] (partner 8 µM)
Summary of the method: (§1)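 After 5 days of treatment, lung cancer cells in 1536-well plates were fixed and stained in a single step (final 0.05% Triton X-100, 1% formaldehyde, 1 ug/ml Hoechst) and their nuclei counted on 4× images. Treatment had been applied by pin tool the day after seeding as one drug alone or as a fixed anchor-drug dose with five library-drug doses (not always all listed) in √10 steps. Relative viability is the nuclei count of treated wells divided by that of vehicle wells, and values are medians of duplicate plates.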

Adavosertib + Luminespib = compound: C=CCn1c(=O)c2cnc(Nc3ccc(N4CCN(C)CC4)cc3)nc2n1-c1cccc(C(C)(C)O)n1 [Adavosertib] + CCNC(=O)c1noc(-c2cc(C(C)C)c(O)cc2O)c1-c1ccc(CN2CCOCC2)cc1 [Luminespib] (partner 0.01 µM)
Summary of the method: as §1

Nelarabine + Linsitinib = compound: COc1nc(N)nc2c1ncn2[C@@H]1O[C@H](CO)[C@@H](O)[C@@H]1O [Nelarabine] + C[C@]1(O)C[C@@H](c2nc(-c3ccc4ccc(-c5ccccc5)nc4c3)c3c(N)nccn32)C1 [Linsitinib] (partner 1 µM)
Summary of the method: as §1

Nelarabine + Decitabine = compound: COc1nc(N)nc2c1ncn2[C@@H]1O[C@H](CO)[C@@H](O)[C@@H]1O [Nelarabine] + Nc1ncn([C@H]2C[C@H](O)[C@@H](CO)O2)c(=O)n1 [Decitabine] (partner 2 µM)
Summary of the method: as §1

Cell Line | relative viability (Adavosertib + Olaparib; first compound 0.03162 µM) | relative viability (Adavosertib + Olaparib; first compound 0.1 µM) | relative viability (Adavosertib + Olaparib; first compound 0.3162 µM) | relative viability (Adavosertib + Luminespib; first compound 0.01 µM) | relative viability (Adavosertib + Luminespib; first compound 0.03162 µM) | relative viability (Adavosertib + Luminespib; first compound 0.1 µM) | relative viability (Adavosertib + Luminespib; first compound 0.3162 µM) | relative viability (Nelarabine + Linsitinib; first compound 0.01 µM) | relative viability (Nelarabine + Linsitinib; first compound 0.03162 µM) | relative viability (Nelarabine + Linsitinib; first compound 0.1 µM) | relative viability (Nelarabine + Linsitinib; first compound 0.3162 µM) | relative viability (Nelarabine + Linsitinib; first compound 1 µM) | relative viability (Nelarabine + Decitabine; first compound 0.01 µM) | relative viability (Nelarabine + Decitabine; first compound 0.03162 µM) | relative viability (Nelarabine + Decitabine; first compound 0.1 µM) | relative viability (Nelarabine + Decitabine; first compound 0.3162 µM) | relative viability (Nelarabine + Decitabine; first compound 1 µM) | relative viability (Adavosertib + Olaparib; first compound 0.01 µM)
NCI-H2405 | 0.865 | 0.907 | 0.898 | 0.556 | 0.805 | 0.773 | 0.69 | 0.98 | 0.853 | 0.898 | 0.966 | 0.872 | 0.674 | 0.686 | 0.745 | 0.816 | 0.721 | –
NCI-H2023 | 0.432 | 0.338 | 0.168 | 0.8 | 0.771 | 0.441 | 0.31 | 0.7 | 0.854 | 0.554 | 0.625 | 0.561 | 0.239 | 0.207 | 0.241 | 0.223 | 0.219 | 0.496
NCI-H1975 | 0.803 | 0.737 | 0.63 | 0.16 | 0.17 | 0.188 | 0.176 | 1.19 | 1.03 | 1.12 | 1.09 | 1.15 | 0.391 | 0.336 | 0.426 | 0.418 | 0.431 | 0.873
EPLC-272H | 0.674 | 0.566 | 0.2 | 0.225 | 0.549 | 0.196 | 0.182 | 1.35 | 1.11 | 1.18 | 1.09 | 1.21 | 0.435 | 0.316 | 0.288 | 0.326 | 0.377 | 0.955
ChaGo-K-1 | 0.39 | 0.405 | 0.32 | 0.502 | 0.683 | 0.489 | 0.719 | – | – | – | – | – | 0.559 | 0.532 | 0.52 | 0.539 | 0.539 | 0.434
NCI-H2228 | 0.749 | 0.519 | 0.27 | 0.186 | 0.159 | 0.132 | 0.134 | 0.519 | 0.832 | – | 0.63 | 0.898 | – | – | – | – | – | –
NCI-H650 | 0.412 | 0.397 | 0.207 | 0.76 | 0.842 | 0.841 | 0.673 | 0.927 | 0.947 | 0.868 | 0.874 | 1 | 0.305 | 0.277 | 0.333 | 0.28 | 0.33 | 0.397
NCI-H1648 | 0.966 | 1.39 | 0.769 | – | – | – | – | – | – | – | – | – | – | 0.533 | – | 0.616 | 0.441 | 0.953
NCI-H1651 | 0.218 | 0.139 | 0.16 | 0.812 | 1.06 | 0.733 | 0.678 | 1.13 | 0.88 | 1.15 | 0.992 | 0.906 | 0.487 | 0.725 | 0.61 | 0.648 | 0.527 | 0.17
NCI-H522 | 0.644 | 0.647 | 0.734 | – | 1.04 | 1.24 | 1.2 | – | – | – | – | – | 0.724 | 0.763 | 0.608 | 0.684 | 0.558 | 0.724
NCI-H1993 | 1.01 | 0.988 | 1.26 | 0.912 | 0.904 | 0.836 | 1.06 | 0.803 | 0.7 | 0.834 | 0.662 | 0.668 | 0.667 | 0.507 | 0.526 | 0.578 | 0.65 | 0.97
HCC-827 | 0.707 | 0.709 | 0.655 | 0.598 | 0.774 | 0.42 | 0.667 | 0.922 | 0.826 | 0.877 | 0.772 | 0.666 | 0.24 | 0.315 | 0.306 | 0.355 | 0.289 | 0.627
NCI-H1299 | 0.959 | 1.04 | 0.357 | – | – | – | – | 1.19 | 1.02 | 1.05 | 1.04 | 0.963 | – | – | – | – | – | 0.953
SW 1573 | 0.564 | 0.663 | 0.372 | 0.177 | 0.226 | 0.192 | 0.198 | 0.82 | 0.646 | 0.848 | 0.799 | 0.73 | 0.582 | 0.503 | 0.513 | 0.58 | 0.483 | 0.507
NCI-H2170 | 0.586 | 0.588 | 0.448 | 0.592 | 0.747 | 0.626 | 0.479 | – | – | – | – | – | 0.473 | 0.546 | 0.484 | 0.47 | 0.427 | 0.643
SW 900 | 0.851 | 0.779 | 0.399 | – | 0.195 | 0.169 | 0.156 | – | – | – | – | – | 0.415 | 0.399 | 0.398 | 0.39 | 0.41 | 0.722
NCI-H1563 | – | – | – | 0.562 | 0.544 | 0.507 | 0.473 | 1.23 | 1.22 | 1.18 | 1.19 | 1.18 | – | – | – | – | – | –
NCI-H2342 | 0.561 | 0.492 | 0.524 | 0.636 | 0.676 | 0.788 | 0.784 | – | – | – | – | – | 0.758 | 0.759 | 0.703 | 0.775 | 0.734 | 0.497
IA-LM | 0.82 | 0.872 | 0.775 | – | – | – | – | 0.847 | 0.838 | 0.68 | 0.737 | 0.667 | – | – | – | – | – | 0.809
NCI-H1623 | – | – | – | 0.354 | 0.492 | 0.453 | 0.468 | – | – | – | – | – | – | – | – | – | – | –
NCI-H1650 | 0.708 | 0.76 | 0.622 | 0.2 | 0.207 | 0.213 | 0.145 | – | – | – | – | – | 0.392 | 0.447 | 0.484 | 0.478 | 0.333 | 0.714
Calu-6 | 0.552 | 0.523 | 0.216 | – | – | – | – | 1.22 | 1.07 | 0.897 | 0.997 | 1 | – | – | – | – | – | 0.629
HCC-366 | 0.376 | 0.317 | 0.32 | – | – | – | – | 1.21 | 0.427 | 0.551 | 0.785 | 0.769 | 0.419 | 0.346 | 0.296 | 0.31 | 0.34 | 0.356
